In patent US7074743B1, “Herbicidal composition comprising 4-iodo-2-[3-(4-methoxy-6-methyl-1,3,5-triazin-2-yl)ureidosulfonyl]benzoic esters” (priority 1995, dated 2006):

Tests used:
Format in all cases: in vivo
Phalaris canariensis = experiment: Herbicidal action on PHACA, visual scoring vs untreated, post-emergence 2-4 leaf stage (greenhouse / field trials)
Procedure: (§1) The examples given below were performed in the greenhouse and, in some cases, in field trials.
(§2) The herbicides, or combinations, were applied in cereals after the weeds had emerged naturally using plot sprayers. After application, the results, such as damage to the crop plants and effect on broad-leaved weeds/grass weeds were assessed by means of visual scoring. The herbicidal action was assessed qualitatively and quantitatively by comparing untreated and treated plots on the basis of the effect on plant growth and the development of chloroses and necroses down to the complete destruction of the weeds (0–100%). The application was effected when the crop plants and weeds were in the 2–4 leaf stage. The test was evaluated approximately 4 weeks after application.
In the greenhouse experiments, the crop plants and broadleaved weeds/grass weeds were grown in No. 13 pots and treated in the 2–4 leaf stage. The pots were subsequently placed in the greenhouse under good growth conditions (temperature, atmospheric humidity, water supply).
The assessments were carried out similarly to those in the field trials, i.e. visual scoring of the treated plants in comparison with untreated control variants. These assessments were carried out 3 weeks after applying the test preparations and their combinations. The experiments had been set up in two replications.
To assess the combination effects, the activities of the individual components were added and compared with the activity of the mixtures in equal doses. It was frequently observed that the efficacies of the combinations exceeded the total of the individual activities.
In cases with less clear effects, the expected value was calculated using Colby's formula and compared with the empirically determined result. The calculated efficacy of a combination which is expected in theory is determined is using S.R. Colby's formula: “Calculation of synergistic and antagonistic responses of herbicide combinations”, Weeds 15 (1967), pages 20 to 22.
[formula] where • X=% damage caused by herbicide A at a rate of ×kg a.i./ha; • Y=% damage caused by herbicide B at a rate of y kg a.i./ha; • Z=% damage caused by a further herbicide C at a rate of z kg a.i./ha; • E=expected value, i.e. expected damage caused by herbicides A+B (or A+B+C) at x+y (or x+y+z) kg a.i./ha.
Synergistic effects were assumed to be when the empirical value exceeded the expected value. In the case of combinations with individual components with the same active substances, comparisons via the total formula were also possible.

Abuthilon theophrastis = experiment: Herbicidal action on ABUTHE, visual scoring vs untreated, post-emergence 2-4 leaf stage; conditions: Table 12; 2.5 g of ai/ha
Procedure: as §1, §2
(§3) In the greenhouse experiments, the crop plants and broadleaved weeds/grass weeds were grown in No. 13 pots and treated in the 2–4 leaf stage. […]
(§4) In cases with less clear effects, the expected value was calculated using Colby's formula and compared with the empirically determined result. The calculated efficacy of a combination which is expected in theory is determined is using S.R. Colby's formula: “Calculation of synergistic and antagonistic responses of herbicide combinations”, Weeds 15 (1967), pages 20 to 22. […]

Ambrosia elatior = experiment: Herbicidal action on AMBEL, visual scoring vs untreated, post-emergence 2-4 leaf stage; conditions: Table 12; 2.5 g of ai/ha
Procedure: as §1, §2, §3, §4

COC(=O)c1ccc(I)cc1S(=O)(=O)NC(=O)Nc1nc(C)nc(OC)n1.[Na] [A), sodium salt of methyl 4-iodo-2-[3-(4-methoxy-6-methyl-1,3,5-triazin-2-yl)ureidosulfonyl]benzoate]
PHACA % control (Phalaris canariensis; Table 1, 3 g of a.i./ha): 0% | PHACA % control (Phalaris canariensis; Table 1, 5 g of a.i./ha): 15% | PHACA % control (Phalaris canariensis; Table 1, 10 g of a.i./ha): 35% | PHACA % control (Phalaris canariensis; Table 1, 20 g of a.i./ha): 53% | PHACA % control (Phalaris canariensis; Table 2, 3 g of a.i./ha): 0% | PHACA % control (Phalaris canariensis; Table 2, 5 g of a.i./ha): 15% | PHACA % control (Phalaris canariensis; Table 2, 10 g of a.i./ha): 35% | PHACA % control (Phalaris canariensis; Table 2, 20 g of a.i./ha): 53% | PHACA % control (Phalaris canariensis; Table 3, 3 g of a.i./ha): 0% | PHACA % control (Phalaris canariensis; Table 3, 5 g of a.i./ha): 15% | PHACA % control (Phalaris canariensis; Table 3, 10 g of a.i./ha): 35% | PHACA % control (Phalaris canariensis; Table 3, 20 g of a.i./ha): 53% | ABUTHE % control (Abuthilon theophrastis): 10% | AMBEL % control (Ambrosia elatior): 88%
